Tested on: patients with fasting triglyceride levels >200 mg/dl and <500 mg/dl despite statin therapy
Experiment: 12-week study: lipid profile (TC, LDL-C, HDL-C, non-HDL-C, VLDL-C, VLDL-TG, RLP-C)
Assay type: in vivo, human
Details: for Non-HDL-C, Diff from pbo (Hodges-Lehmann median difference) / Non-HDL-C, EOT (Week 12 endpoint) median / LDL-C Median % chg from BL / LDL-C, Diff from pbo (Hodges-Lehmann median difference) / LDL-C, EOT (Week 12 endpoint) median / Non-HDL-C Median % chg from BL / LDL-C Diff from pbo (median % chg, Hodges-Lehmann) / LDL-C EOT Median / Non-HDL-C Diff from pbo (median % chg, Hodges-Lehmann) / Non-HDL-C EOT Median: AMR 101 4 g + statin
Text: Parameters (a)-(z) can be measured in accordance with any clinically acceptable methodology. For example, triglycerides, total cholesterol, HDL-C and fasting blood sugar can be sample from serum and analyzed using standard photometry techniques. VLDL-TG, LDL-C and VLDL-C can be calculated or determined using serum lipoprotein fractionation by preparative ultracentrifugation and subsequent quantitative analysis by refractometry or by analytic ultracentrifugal methodology. Apo A1, Apo B and hsCRP can be determined from serum using standard nephelometry techniques. Lipoprotein (a) can be determined from serum using standard turbidimetric immunoassay techniques. LDL particle number and particle size can be determined using nuclear magnetic resonance (NMR) spectrometry. Remnants lipoproteins and LDL-phospholipase A2 can be determined from EDTA plasma or serum and serum, respectively, using enzymatic immunoseparation techniques. Oxidized LDL, intercellular adhesion molecule-1 and interleukin-2 levels can be determined from serum using standard enzyme immunoassay techniques. These techniques are described in detail in standard textbooks, for example Tietz Fundamentals of Clinical Chemistry, 6th Ed. (Burtis, Ashwood and Borter Eds.), WB Saunders Company.
A multi-center, placebo-controlled, randomized, double-blind, 12-week study was performed to evaluate the efficacy and safety of >96% E-EPA in patients with fasting triglyceride levels >200 mg/dl and <500 mg/dl despite statin therapy (the mean of two qualifying entry values needed to be >185 mg/dl and at least one of the values needed to be >200 mg/dl). The primary objective of the study was to determine the efficacy of >96% E-EPA 2 g daily and 4 g daily, compared to placebo, in lowering fasting TG levels in patients with high risk for cardiovascular disease and with fasting TG levels 200 mg/dl and <500 mg/dl, despite treatment to LDL-C goal on statin therapy.
The secondary objectives of this study were the following: • 1. To determine the safety and tolerability of >96% E-EPA 2 g daily and 4 g daily; • 2. To determine the effect of >96% E-EPA on lipid and apolipoprotein profiles including total cholesterol (TC), non-high-density lipoprotein cholesterol (non-HDL-C), low density lipoprotein cholesterol (LDL-C), high density lipoprotein cholesterol (HDL-C), and […]; • 3. To determine the effect of >96% E-EPA on lipoprotein associated phospholipase A2 (Lp-PLA2) from baseline to week 12; • 4. To determine the effect of >96% E-EPA on low-density lipoprotein (LDL) particle number and size; • 5. To determine the effect of >96% E-EPA on oxidized LDL; • 6. To determine the effect of >96% E-EPA on fasting plasma glucose (FPG) and hemoglobin A1c (HbA1c); • 7. To determine the effect of >96% E-EPA on insulin resistance; • 8. To determine the effect of >96% E-EPA on high-sensitivity C-reactive protein (hsCRP); • 9. To determine the effects of >96% E-EPA 2 g daily and 4 g daily on the incorporation of fatty acids into red blood cell membranes and into plasma phospholipids; • 10. To explore the relationship between baseline fasting TG levels and the reduction in fasting TG levels; and • 11. To explore the relationship between changes of fatty acid concentrations in plasma and red blood cell membranes, and the reduction in fasting TG levels.
The primary efficacy variable for the double-blind treatment period was percent change in TG from baseline to Week 12 endpoint. […]

[1] = Diabetes No, Week 12 endpoint, MITT
[2] = Diabetes Yes, Week 12 endpoint, MITT
[3] = Non-statin Washout No, Week 12 endpoint, MITT
[4] = Non-statin Washout Yes, Week 12 endpoint, MITT
[5] = baseline TG tertile Highest (≥289.5 mg/dL), Week 12 endpoint, MITT
[6] = baseline TG tertile Lowest (<230.5 mg/dL), Week 12 endpoint, MITT
[7] = baseline TG tertile Middle (230.5 to <289.5 mg/dL), Week 12 endpoint, MITT
[8] = AMR101 4 g/d + statin, Week 12 endpoint, MITT
[9] = AMR101 4 g/d + statin, percent change from baseline to Week 12 endpoint, MITT
[10] = IPE 4 g/day (n = 216), 12 weeks, patients with lipoprotein data
[11] = IPE 4 g/day vs placebo, 12 weeks, Hodges-Lehmann median

With CC/C=C\C/C=C\C/C=C\C/C=C\C/C=C\CCCC(=O)OCC [AMR101, ethyl eicosapentaenoate] the “Non-HDL-C, Diff from pbo (Hodges-Lehmann median difference)” value (Atorva subgroup, MITT) was −13.5, the “Non-HDL-C, EOT (Week 12 endpoint) median” value (Atorva subgroup, MITT) was 122.0 and the “LDL-C Median % chg from BL” value (Rosuva subgroup, MITT) was −3.8%. The “LDL-C, Diff from pbo (Hodges-Lehmann median difference)” value (Rosuva subgroup, MITT) was −14.8, the “LDL-C, EOT (Week 12 endpoint) median” value (Rosuva subgroup, MITT) was 82.5 and the “Non-HDL-C Median % chg from BL” value (Rosuva subgroup, MITT) was −5.5%. For the same compound, the “Non-HDL-C, Diff from pbo (Hodges-Lehmann median difference)” value (Rosuva subgroup, MITT) was −20.0, the “Non-HDL-C, EOT (Week 12 endpoint) median” value (Rosuva subgroup, MITT) was 118.0 and the “LDL-C Median % chg from BL” value (Simva subgroup, MITT) was 1.5%. The “LDL-C, Diff from pbo (Hodges-Lehmann median difference)” value (Simva subgroup, MITT) was −5.4, the “LDL-C, EOT (Week 12 endpoint) median” value (Simva subgroup, MITT) was 83.0 and the “Non-HDL-C Median % chg from BL” value (Simva subgroup, MITT) was −4.3%. The “Non-HDL-C, Diff from pbo (Hodges-Lehmann median difference)” value (Simva subgroup, MITT) was −11.1, the “Non-HDL-C, EOT (Week 12 endpoint) median” value (Simva subgroup, MITT) was 125.0 and the “LDL-C Median % chg from BL” value (Statin Potency High, MITT) was 5.4%. The “LDL-C, Diff from pbo (Hodges-Lehmann median difference)” value (Statin Potency High, MITT) was −2.9, the “LDL-C, EOT (Week 12 endpoint) median” value (Statin Potency High, MITT) was 82.0 and the “Non-HDL-C Median % chg from BL” value (Statin Potency High, MITT) was −6.3%. The “Non-HDL-C, Diff from pbo (Hodges-Lehmann median difference)” value (Statin Potency High, MITT) was −15.8, the “Non-HDL-C, EOT (Week 12 endpoint) median” value (Statin Potency High, MITT) was 118 and the “LDL-C Median % chg from BL” value (Statin Potency Low, MITT) was 7.8%. The “LDL-C, Diff from pbo (Hodges-Lehmann median difference)” value (Statin Potency Low, MITT) was 12.4, the “LDL-C, EOT (Week 12 endpoint) median” value (Statin Potency Low, MITT) was 84.5 and the “Non-HDL-C Median % chg from BL” value (Statin Potency Low, MITT) was −1.4%. The “Non-HDL-C, Diff from pbo (Hodges-Lehmann median difference)” value (Statin Potency Low, MITT) was 2.4, the “Non-HDL-C, EOT (Week 12 endpoint) median” value (Statin Potency Low, MITT) was 131 and the “LDL-C Median % chg from BL” value (Statin Potency Medium, MITT) was −2.2%. For the same compound, the “LDL-C, Diff from pbo (Hodges-Lehmann median difference)” value (Statin Potency Medium, MITT) was −10.0, the “LDL-C, EOT (Week 12 endpoint) median” value (Statin Potency Medium, MITT) was 84.0 and the “Non-HDL-C Median % chg from BL” value (Statin Potency Medium, MITT) was −4.3%. For the same compound, the “Non-HDL-C, Diff from pbo (Hodges-Lehmann median difference)” value (Statin Potency Medium, MITT) was −13.9, the “Non-HDL-C, EOT (Week 12 endpoint) median” value (Statin Potency Medium, MITT) was 124 and the “LDL-C Diff from pbo (median % chg, Hodges-Lehmann)” value [1] was −5.3%. The “LDL-C EOT Median” value [1] was 83.5 mg/dL, the “LDL-C Median % chg from BL” value [1] was 1.4% and the “Non-HDL-C Diff from pbo (median % chg, Hodges-Lehmann)” value [1] was −11.3′ %. For the same compound, the “Non-HDL-C EOT Median” value [1] was 126 mg/dL, the “Non-HDL-C Median % chg from BL” value [1] was −0.9% and the “LDL-C Diff from pbo (median % chg, Hodges-Lehmann)” value [2] was −6.3%. For the same compound, the “LDL-C EOT Median” value [2] was 83.0 mg/dL, the “LDL-C Median % chg from BL” value [2] was 2.0% and the “Non-HDL-C Diff from pbo (median % chg, Hodges-Lehmann)” value [2] was −14.4%. The “Non-HDL-C EOT Median” value [2] was 121 mg/dL, the “Non-HDL-C Median % chg from BL” value [2] was −5.5% and the “LDL-C Diff from pbo (median % chg, Hodges-Lehmann)” value [3] was −5.1%. For the same compound, the “LDL-C EOT Median” value [3] was 83.5 mg/dL, the “LDL-C Median % chg from BL” value [3] was 2.5% and the “Non-HDL-C Diff from pbo (median % chg, Hodges-Lehmann)” value [3] was −4.8%. The “Non-HDL-C EOT Median” value [3] was 122 mg/dL, the “Non-HDL-C Median % chg from BL” value [3] was −4.9% and the “LDL-C Diff from pbo (median % chg, Hodges-Lehmann)” value [4] was −7.5%. The “LDL-C EOT Median” value [4] was 80.0 mg/dL, the “LDL-C Median % chg from BL” value [4] was −1.4% and the “Non-HDL-C Diff from pbo (median % chg, Hodges-Lehmann)” value [4] was −14.4%. The “Non-HDL-C EOT Median” value [4] was 124 mg/dL, the “Non-HDL-C Median % chg from BL” value [4] was −5.4% and the “LDL-C Diff from pbo (median % chg, Hodges-Lehmann)” value [5] was 0%. The “LDL-C EOT Median” value [5] was 83.0, the “LDL-C Median % chg from BL” value [5] was 4.8% and the “Non-HDL-C Diff from pbo (median % chg, Hodges-Lehmann)” value [5] was −17.6%. For the same compound, the “Non-HDL-C EOT Median” value [5] was 130, the “Non-HDL-C Median % chg from BL” value [5] was −6.9% and the “LDL-C Diff from pbo (median % chg, Hodges-Lehmann)” value [6] was −12.2%. For the same compound, the “LDL-C EOT Median” value [6] was 83.0, the “LDL-C Median % chg from BL” value [6] was −3.9% and the “Non-HDL-C Diff from pbo (median % chg, Hodges-Lehmann)” value [6] was −13.8%. For the same compound, the “Non-HDL-C EOT Median” value [6] was 118, the “Non-HDL-C Median % chg from BL” value [6] was −2.0% and the “LDL-C Diff from pbo (median % chg, Hodges-Lehmann)” value [7] was −5.8%. For the same compound, the “LDL-C EOT Median” value [7] was 82.5, the “LDL-C Median % chg from BL” value [7] was 2.1% and the “Non-HDL-C Diff from pbo (median % chg, Hodges-Lehmann)” value [7] was −9.5%. The “Non-HDL-C EOT Median” value [7] was 124, the “Non-HDL-C Median % chg from BL” value [7] was −4.0% and the “HDL-C Week 12 EP Median (IQR)” value (AMR101 4 g/d + statin, MITT) was 37.0 (13.0) mg/dL. The “LDL-C Week 12 EP Median (IQR)” value (AMR101 4 g/d + statin, MITT) was 83.0 (31.0) mg/dL, the “Non-HDL-C Week 12 EP Median (IQR)” value (AMR101 4 g/d + statin, MITT) was 122.0 (39.0) mg/dL and the “RLP-C Week 12 EP Median (IQR)” value (AMR101 4 g/d + statin, MITT) was 10.0 (6.0) mg/dL. For the same compound, the “Total cholesterol Week 12 EP Median (IQR)” value (AMR101 4 g/d + statin, MITT) was 162.0 (38.0) mg/dL, the “VLDL-C Week 12 EP Median (IQR)” value (AMR101 4 g/d + statin, MITT) was 38.0 (22.0) mg/dL and the “VLDL-TG Week 12 EP Median (IQR)” value (AMR101 4 g/d + statin, MITT) was 147.0 (88.0) mg/dL. For the same compound, the “HDL-C Percent change from Baseline Median (IQR)” value [8] was −1.0 (18.2) %, the “LDL-C Percent change from Baseline Median (IQR)” value [8] was 1.5 (26.6) % and the “Non-HDL-C Percent change from Baseline Median (IQR)” value [8] was −5.0 (21.3) %. For the same compound, the “RLP-C Percent change from Baseline Median (IQR)” value [8] was −24.0 (45.5) %, the “Total cholesterol Percent change from Baseline Median (IQR)” value [8] was −3.2 (16.8) % and the “VLDL-C Percent change from Baseline Median (IQR)” value [8] was −12.1 (47.9) %. For the same compound, the “VLDL-TG Percent change from Baseline Median (IQR)” value [8] was −19.2 (46.2) %, the “HDL-C Difference from placebo Estimated median” value [9] was −4.5% and the “LDL-C Difference from placebo Estimated median” value [9] was −6.2%. For the same compound, the “Non-HDL-C Difference from placebo Estimated median” value [9] was −13.6%, the “RLP-C Difference from placebo Estimated median” value [9] was −25.8% and the “Total cholesterol Difference from placebo Estimated median” value [9] was −12.0%. The “VLDL-C Difference from placebo Estimated median” value [9] was −24.4%, the “VLDL-TG Difference from placebo Estimated median” value [9] was −26.5% and the “HDL-C, Change From Baseline, % (median)” value [10] was −2.2%. For the same compound, the “HDL-C, End of Treatment (median)” value [10] was 36.5 mg/dL, the “LDL-C, Change From Baseline, % (median)” value [10] was 2.1% and the “LDL-C, End of Treatment (median)” value [10] was 83.0 mg/dL. For the same compound, the “Non-HDL-C, Change From Baseline, % (median)” value [10] was −5.1%, the “Non-HDL-C, End of Treatment (median)” value [10] was 122.0 mg/dL and the “HDL-C, Median Change From Baseline IPE 4 g/day vs Placebo, %” value [11] was −5.0%. The “LDL-C, Median Change From Baseline IPE 4 g/day vs Placebo, %” value [11] was −5.2% and the “Non-HDL-C, Median Change From Baseline IPE 4 g/day vs Placebo, %” value [11] was −13.5%.
